This test deals with COL0205-S and COL0205-R cells. In words: Antiproliferative effects, epithelial vs mesenchymal COLO205. The class given is cell-based, human. From the text: FIG. 2. Epithelial-to-mesenchymal differentiation and OTX-008 sensitivity. A—Correlations between galectin-1 (LGALS1) and vimentin, E-cadherin (CDH1) and N-cadherin (CDH2) relative mRNA expression. B—Correlations between OTX-008 IC50s and vimentin, E-cadherin (CDH1) and N-cadherin (CDH2) relative mRNA expression. C—Antiproliferative effects of OTX-008 in epithelial COLO205-S and mesenchymal COLO205-R colon cancer cells. D—Antiproliferative effects of OTX-008 in SNAIL-inducible colon cancer cell lines. E—Antiproliferative effects of OTX-008 in shWISP breast cancer cell lines.
Cell survival was determined using the MTT assay (3-[4,5-dimethylthiazol-2-yl]-2,5-diphenyltetrazolium bromide; Sigma, Saint-Quentin Fallavier, France). The conversion of yellow water-soluble tetrazolium MTT into purple insoluble formazan is catalyzed by mitochondrial dehydrogenases and used to estimate the number of viable cells. In brief, cells were seeded in 96-well tissue culture plates at a density of 2×10^3 cells/well. […] After incubation, the supernatant was discarded, insoluble formazan precipitates were dissolved in 0.1 ml of DMSO and the absorbance was measured at 560 nm by use of a microplate reader (Thermo, France). […] IC50's were determined as the halves of maximal inhibitory drug concentration for each cell line. […]

Consider `CN(C)CCNC(=O)COc1c2cccc1Cc1cccc(c1OCC(=O)NCCN(C)C)Cc1cccc(c1OCC(=O)NCCN(C)C)Cc1cccc(c1OCC(=O)NCCN(C)C)C2` [OTX-008], for which the “activity in epithelial vs mesenchymal cells” value was “markedly more active in COL0205-S cells than in COL0205-R cells”.

The values are drawn from patent publication US20140243415A1, “COMPOUNDS INHIBITING GALECTIN-1 EXPRESSION, CANCER CELL PROLIFERATION, INVASION, AND TUMORIGENESIS” (ONCOETHIX SA, priority 2011, published 2014).
